Assay results as given in US20250313653A1, “GUEST/HOST INCLUSION COMPLEXES CONTAINING S-NITROSOGLUTATHIONE AND METHODS OF USE THEREOF” (VIRGINIA COMMONWEALTH UNIVERSITY, priority 2022, published 2025).
≈ marks a conversion by molar mass, not a printed value.

Assays:
[1] = GSNO thermal decomposition via UV-Vis absorption spectroscopy; assay type: physicochemical
Experimental: GSNO was synthesized by nitrosation of reduced L-glutathione in acidified nitrite as previously reported.^52 After collecting GSNO precipitates and washing them using cold water and acetone, GSNO powder was vacuum dried for 4 h and stored at −20° C. GSNO powders were dissolved in phosphate buffer (PB) containing the same mole of Na2HPO4 before the pH adjustment. For example, the formal concentration of Na2HPO4 is 0.1 M when the GSNO concentration is 0.1 M. One hundred μM EDTA was always added to each solution before the solution pH was finally adjusted to 7.4 via NaOH. EDTA is a chelating agent to mask Cu^2+, a S-nitrosothiol catalyst that may exist in solvents and chemicals as an impurity.^53 For solutions with reactive agents, BSA, ascorbic acid, or cysteine was added before the pH adjustment. To prepare GSNO-CD solutions, appropriate amounts of CD powders were dissolved into the GSNO solutions prior to the pH adjustment.
(§1) Aqueous GSNO solutions were contained in 1.5 mL disposable polystyrene cuvettes. The cuvette was caped and further sealed with parafilm. The concentrations of GSNO during storage at 37° C. or 25° C. in the dark were monitored by a UV-vis spectrophotometer (Go Direct® Fluorescence/UV-VIS Spectrophotometer) at a wavelength of 545 nm. A 4 W LED white light was used as the light source for the photodecomposition experiment at room temperature. The distance between the light source and the cuvettes was approximately 10 cm. All GSNO decomposition experiments were triplicated, and the GSNO concentration was expressed as mean±standard deviation.

[2] = GSNO photodecomposition under LED white light; assay type: physicochemical; conditions: presence of αCD, 4-h experiment under LED white light, room temperature
Experimental: as §1

S. aureus [3] = assay: Prevention of intraluminal catheter infection (planktonic and biofilm); assay type: cell-based; conditions: 3-day experiments
Experimental: (§2) Both biofilm and planktonic bacteria were quantified to evaluate the antibacterial activities of the proposed method. LB medium (25 mg/mL) was used to culture all bacterial strains overnight before performing the antibacterial tests. Segments of medical-grade silicone tubes were all autoclaved. Lock solutions were freshly prepared using the sterilized buffer and filtered through a 0.22 m PES syringe filter. The biofilms on the silicone surface were dip-rinsed 5 times in PBS and detached by 1-min vertexing, 1-min sonication (20% power of a 150 W probe sonifier, Branson Ultrasonics), and another 1-min vertexing for plate counting. When quantifying the planktonic bacteria, the suspension was homogenized by 1-min vertexing. […] After plate incubation at 37° C. overnight, colony-forming units (CFU) of bacteria were counted and converted to CFU/cm^2 for biofilm quantification and CFU/mL for planktonic bacteria quantification. […] In our case, the limit of detection (LOD) is 400 CFU/cm^2 for biofilm quantification and 200 CFU/mL for quantification of planktonic bacteria. […] The statistical significance between groups was determined using a student's t-test.
(§3) The 0.1 M αCD, 0.1 M GSNO, and 0.1 M GSNO+0.1 M αCD solutions were prepared in LB broth buffered with 0.1 M Na2HPO4 and adjusted to pH 7.4. […] Viable biofilm and planktonic cells were evaluated by plate counting. […]

E. coli = assay: Antibacterial effect of NO release solutions, 3-day exposure; assay type: cell-based; conditions: silicone surface
Experimental: as §2, §3

fibroblast L929 cells = assay: Cytotoxicity test (MTS assay) of lock-solution-filled silicone tubes; assay type: cell-based, mouse; conditions: 24-h incubation of L929 cells with silicone tubes filled with the lock solution
Experimental: L929 murine fibroblast cells were suspended in complete media (DMEM with 1% penicillin/streptomycin and 10% FBS) before being seeded in a 24-well plate at a concentration of 5×10^5 cells per well. After 24 h of incubation, the attached cells in each well were incubated in fresh media containing a sterilized 1-cm silicone tube (HelixMark® 60-011-07) filled with a lock solution with buffer, GSNO, or GSNO-αCD and with both ends sealed. MTS assays were performed following the manufacturer's procedure after an additional 24-h incubation. Absorbance at 490 nm was measured by a Cytation 3 imaging plate reader (Biotek).

S. aureus [4] = assay: Agar diffusion assay for the hydrogel containing GSNO; assay type: cell-based; conditions: agar hydrogel on inoculated LB-agar plate, 24-h incubation at 37° C.
Experimental: Two grams of agar were dissolved in 100 mL of 0.1 M phosphate buffer at pH 7.4 at 80° C. for 3 h with stirring. GSNO solutions at 0.2 M with or without 0.2 M αCD in 0.1 M phosphate buffer at pH 7.4 were prepared separately. Then, 0.5 mL GSNO solution and 0.5 mL dissolved agar were mixed and put into an ice bath to facilitate gelation.
The overnight S. aureus culture was diluted to a density of 0.1 OD600 in PBS. Then, the diluted bacterial inoculum was uniformly spread on an LB-agar plate using a sterile cotton swab. The plate was marked as four separate portions. Forty μL of warm liquid agar with only buffer, GNSO, αCD, or GSNO-αCD (see section 2.5) was added onto a portion of the inoculated plate twice. The agar solution was gelated almost instantly due to the temperature decrease to form a small circular hydrogel area. The bacterial growth was visually examined after 24-h incubation at 37° C.

[5] = at low pH; cited from earlier work
[6] = 0.1 M GSNO in 0.1 M PB, pH 7.4, 37° C., with 0.15 M αCD and 0.1 M γCD
[7] = 0.1 M GSNO in 0.1 M PB, pH 7.4, 37° C., without CD
[8] = 0.1 M GSNO with 0.15 M αCD and 0.1 M γCD versus GSNO only

N[C@@H](CCC(=O)N[C@@H](CSN=O)C(=O)NCC(=O)O)C(=O)O [GSNO, S-nitrosoglutathione]
GSNO lifetime ([1]; 0.05 M GSNO and 0.15 M αCD in 0.05 M PB, pH 7.4, 37° C.): 17 days
GSNO lifetime ([1]; 0.05 M GSNO in 0.05 M PB, pH 7.4, 37° C., without CDs): 7 days
GSNO decay in the first 24 h ([1]; 0.1 M GSNO in 0.1 M PB, pH 7.4, 37° C., with 0.1 M αCD): 39%
GSNO lifetime [1, 6]: 15 days
first-day decay of GSNO [1, 6]: 22%
GSNO lifetime ([1]; 0.1 M GSNO in 0.1 M PB, pH 7.4, 37° C., with an equal mole (0.1 M) of αCD): 11 days
GSNO degraded within the first 24 h [1, 7]: 66%
GSNO lifetime [1, 7]: 6 days
improvement of GSNO lifetime [1, 8]: 2.5 times
improvement of first-day decay [1, 8]: 3 times
lifetime of 0.1 M GSNO ([1]; in the presence of CDs at 37° C.): up to 15 days
half-life at 0.05 M ([1]; phosphate buffer, room temperature, 0.05 M GSNO in 0.05 M PB pH 7.4, with 0.15 M αCD): ~20 days
half-life of GSNO relative to only GSNO ([1]; room temperature, with 0.15 M αCD): 4 times
decrease in the decomposition rate of GSNO [2]: ~2 fold
reduction of bacterial biofilm on silicone rubber (S. aureus [3]): 99.2%
reduction of growth of planktonic S. aureus compared to the phosphate buffer (S. aureus [3]; 0.1 M GSNO without or with 0.1 M αCD, 37° C.): 5 orders of magnitude
reduction of E. coli biofilm (E. coli): 79%
cytotoxicity / cell viability (MTS) (fibroblast L929 cells): no cytotoxicity
S. aureus growth on the hydrogel (S. aureus [4]): grows less bacteria
aqueous solubility [5]: 75 mM (≈ 25.2 mg/mL)
